Experimental findings from ChEMBL document CHEMBL3991601, “The target landscape of clinical kinase drugs” (Science, 2017) are described below.

Assay [1] addresses Serine/threonine-protein kinase MRCK beta (Homo sapiens, UniProt Q9Y5S2).
A further assay addresses T1, Ephrin type-A receptor 1 (Homo sapiens, UniProt P21709).
T1 sequence (P21709 whole entry): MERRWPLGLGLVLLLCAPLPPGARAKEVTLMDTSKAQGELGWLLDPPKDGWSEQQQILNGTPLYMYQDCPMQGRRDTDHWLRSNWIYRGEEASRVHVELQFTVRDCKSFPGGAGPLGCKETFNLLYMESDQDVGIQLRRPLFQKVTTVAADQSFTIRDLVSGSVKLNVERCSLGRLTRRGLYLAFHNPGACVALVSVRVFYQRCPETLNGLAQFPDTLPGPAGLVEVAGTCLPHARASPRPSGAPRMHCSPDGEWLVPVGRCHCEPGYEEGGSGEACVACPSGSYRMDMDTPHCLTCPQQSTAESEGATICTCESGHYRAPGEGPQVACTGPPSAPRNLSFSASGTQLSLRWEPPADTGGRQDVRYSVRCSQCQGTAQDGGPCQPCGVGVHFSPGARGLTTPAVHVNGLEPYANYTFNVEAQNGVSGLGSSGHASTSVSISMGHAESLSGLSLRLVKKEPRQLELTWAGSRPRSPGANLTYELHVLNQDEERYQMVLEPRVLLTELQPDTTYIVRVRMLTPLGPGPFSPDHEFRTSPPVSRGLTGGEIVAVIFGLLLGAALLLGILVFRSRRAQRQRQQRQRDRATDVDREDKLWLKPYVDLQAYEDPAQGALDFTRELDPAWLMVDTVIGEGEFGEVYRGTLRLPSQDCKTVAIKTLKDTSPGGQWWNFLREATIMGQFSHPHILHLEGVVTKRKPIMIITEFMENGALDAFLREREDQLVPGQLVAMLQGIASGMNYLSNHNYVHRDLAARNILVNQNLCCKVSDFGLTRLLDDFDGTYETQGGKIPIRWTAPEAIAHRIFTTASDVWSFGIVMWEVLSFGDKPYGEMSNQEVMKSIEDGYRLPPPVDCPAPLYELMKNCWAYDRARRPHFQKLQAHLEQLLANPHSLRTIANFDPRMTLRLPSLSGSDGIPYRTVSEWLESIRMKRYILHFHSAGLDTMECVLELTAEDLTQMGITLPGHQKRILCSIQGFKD

The target of assay [2] is Mitogen-activated protein kinase kinase kinase kinase 5 (Homo sapiens, UniProt Q9Y4K4).
In assay [3] the target is Mitogen-activated protein kinase 14 (Homo sapiens, UniProt Q16539).
Assay [4] addresses T2, NUAK family SNF1-like kinase 2 (Homo sapiens, UniProt Q9H093).
T2 sequence (Q9H093 whole entry): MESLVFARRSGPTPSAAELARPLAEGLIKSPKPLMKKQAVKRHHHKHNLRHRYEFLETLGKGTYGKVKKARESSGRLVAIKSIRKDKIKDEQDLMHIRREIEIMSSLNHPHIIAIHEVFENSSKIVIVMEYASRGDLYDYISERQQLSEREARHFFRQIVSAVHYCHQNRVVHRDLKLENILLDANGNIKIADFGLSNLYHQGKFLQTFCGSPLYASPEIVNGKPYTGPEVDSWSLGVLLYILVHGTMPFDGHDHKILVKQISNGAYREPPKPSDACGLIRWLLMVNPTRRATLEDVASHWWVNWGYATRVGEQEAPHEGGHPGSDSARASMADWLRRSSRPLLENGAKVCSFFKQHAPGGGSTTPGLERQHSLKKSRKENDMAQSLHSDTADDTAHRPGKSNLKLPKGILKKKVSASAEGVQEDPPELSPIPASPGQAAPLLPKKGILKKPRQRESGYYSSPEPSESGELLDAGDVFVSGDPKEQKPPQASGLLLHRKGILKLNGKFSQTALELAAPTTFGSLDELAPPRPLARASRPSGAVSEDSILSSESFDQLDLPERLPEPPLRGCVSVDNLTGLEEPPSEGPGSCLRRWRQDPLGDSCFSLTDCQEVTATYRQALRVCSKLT

For assay [5], the target named is T3, Tyrosine-protein kinase Tec (Homo sapiens, UniProt P42680).
T3 sequence (P42680 whole entry): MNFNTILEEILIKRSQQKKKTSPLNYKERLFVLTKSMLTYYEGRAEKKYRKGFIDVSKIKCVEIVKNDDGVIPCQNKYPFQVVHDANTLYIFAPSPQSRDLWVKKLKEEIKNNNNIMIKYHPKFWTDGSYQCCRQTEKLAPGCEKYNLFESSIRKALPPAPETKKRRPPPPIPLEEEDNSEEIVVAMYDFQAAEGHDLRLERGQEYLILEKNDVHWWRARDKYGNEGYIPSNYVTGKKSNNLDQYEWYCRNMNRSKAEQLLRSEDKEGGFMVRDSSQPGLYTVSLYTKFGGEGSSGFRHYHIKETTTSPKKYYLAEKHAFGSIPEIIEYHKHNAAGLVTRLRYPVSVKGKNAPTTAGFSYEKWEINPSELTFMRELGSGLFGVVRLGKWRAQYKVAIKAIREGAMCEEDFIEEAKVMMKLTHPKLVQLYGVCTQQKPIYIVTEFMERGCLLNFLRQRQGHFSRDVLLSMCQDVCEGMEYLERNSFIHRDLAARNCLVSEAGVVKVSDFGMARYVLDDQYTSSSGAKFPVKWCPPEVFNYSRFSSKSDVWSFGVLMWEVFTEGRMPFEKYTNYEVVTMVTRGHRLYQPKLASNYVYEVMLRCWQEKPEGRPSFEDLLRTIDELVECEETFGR

Assay [6] addresses T4, Tyrosine--tRNA ligase, cytoplasmic (Homo sapiens, UniProt P54577).
T4 sequence (P54577 whole entry): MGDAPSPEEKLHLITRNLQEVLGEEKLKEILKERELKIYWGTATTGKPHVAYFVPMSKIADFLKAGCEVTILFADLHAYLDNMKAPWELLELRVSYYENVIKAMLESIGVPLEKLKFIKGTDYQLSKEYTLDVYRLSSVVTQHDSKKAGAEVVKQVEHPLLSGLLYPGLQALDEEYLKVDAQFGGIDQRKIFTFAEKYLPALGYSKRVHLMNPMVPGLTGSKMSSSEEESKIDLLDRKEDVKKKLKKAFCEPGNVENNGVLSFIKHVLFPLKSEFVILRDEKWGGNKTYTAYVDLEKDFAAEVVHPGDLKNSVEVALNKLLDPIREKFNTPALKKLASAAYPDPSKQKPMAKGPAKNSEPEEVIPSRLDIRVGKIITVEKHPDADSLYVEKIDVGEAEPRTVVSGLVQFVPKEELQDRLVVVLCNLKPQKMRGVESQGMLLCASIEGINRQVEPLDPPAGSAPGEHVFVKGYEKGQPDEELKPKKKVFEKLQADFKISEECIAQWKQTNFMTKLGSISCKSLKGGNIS

Activity calls are given as the source filed them. Rule as the data show it, for most assays here: actives have a measured Kd and inactives only a lower limit.
Also: in the data inactive means no Kd found up to 30 µM.

Sequence of Serine/threonine-protein kinase MRCK beta (Q9Y5S2 whole entry): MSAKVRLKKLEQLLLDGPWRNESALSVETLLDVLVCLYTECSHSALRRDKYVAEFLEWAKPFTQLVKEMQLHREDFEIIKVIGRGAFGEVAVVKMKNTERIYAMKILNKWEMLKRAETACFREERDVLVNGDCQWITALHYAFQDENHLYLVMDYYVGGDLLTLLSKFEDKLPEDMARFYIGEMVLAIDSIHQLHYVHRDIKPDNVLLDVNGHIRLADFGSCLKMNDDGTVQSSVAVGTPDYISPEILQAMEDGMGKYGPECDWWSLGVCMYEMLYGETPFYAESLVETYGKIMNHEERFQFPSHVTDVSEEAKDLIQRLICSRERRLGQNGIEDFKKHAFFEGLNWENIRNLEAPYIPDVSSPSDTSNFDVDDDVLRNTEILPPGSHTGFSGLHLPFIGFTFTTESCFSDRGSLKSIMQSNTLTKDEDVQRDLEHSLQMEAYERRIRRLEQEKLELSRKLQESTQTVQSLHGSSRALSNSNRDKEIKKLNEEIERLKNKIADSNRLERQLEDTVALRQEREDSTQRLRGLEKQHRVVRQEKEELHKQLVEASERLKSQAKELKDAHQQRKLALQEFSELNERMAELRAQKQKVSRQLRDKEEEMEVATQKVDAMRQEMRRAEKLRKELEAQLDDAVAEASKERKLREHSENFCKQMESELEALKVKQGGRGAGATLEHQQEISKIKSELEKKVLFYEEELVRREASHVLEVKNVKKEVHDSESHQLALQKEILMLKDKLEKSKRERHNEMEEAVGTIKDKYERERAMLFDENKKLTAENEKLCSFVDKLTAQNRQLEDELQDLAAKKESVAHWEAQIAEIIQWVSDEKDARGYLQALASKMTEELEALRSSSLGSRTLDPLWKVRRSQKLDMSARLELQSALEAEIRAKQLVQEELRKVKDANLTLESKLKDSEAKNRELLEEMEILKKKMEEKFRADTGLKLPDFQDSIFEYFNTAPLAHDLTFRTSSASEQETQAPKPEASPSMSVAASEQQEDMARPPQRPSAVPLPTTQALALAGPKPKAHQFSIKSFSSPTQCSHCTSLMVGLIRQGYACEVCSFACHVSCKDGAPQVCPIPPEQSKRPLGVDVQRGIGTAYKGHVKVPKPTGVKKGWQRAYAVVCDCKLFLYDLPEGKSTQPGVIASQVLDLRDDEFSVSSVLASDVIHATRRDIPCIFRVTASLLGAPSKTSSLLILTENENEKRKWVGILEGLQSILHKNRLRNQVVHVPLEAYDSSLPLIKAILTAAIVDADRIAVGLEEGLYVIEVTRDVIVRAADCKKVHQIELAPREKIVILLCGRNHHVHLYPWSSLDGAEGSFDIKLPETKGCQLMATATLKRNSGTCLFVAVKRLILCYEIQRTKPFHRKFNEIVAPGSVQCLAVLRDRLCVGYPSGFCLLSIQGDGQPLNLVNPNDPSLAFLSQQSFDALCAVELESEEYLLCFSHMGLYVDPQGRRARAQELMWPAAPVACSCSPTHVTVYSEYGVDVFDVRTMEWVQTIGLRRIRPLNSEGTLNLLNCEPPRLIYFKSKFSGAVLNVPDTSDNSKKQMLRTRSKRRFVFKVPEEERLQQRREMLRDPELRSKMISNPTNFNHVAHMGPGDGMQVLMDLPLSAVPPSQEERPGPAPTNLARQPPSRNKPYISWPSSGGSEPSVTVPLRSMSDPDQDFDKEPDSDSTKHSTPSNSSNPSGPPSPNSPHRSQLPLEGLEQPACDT
Sequence of Mitogen-activated protein kinase kinase kinase kinase 5 (Q9Y4K4 whole entry): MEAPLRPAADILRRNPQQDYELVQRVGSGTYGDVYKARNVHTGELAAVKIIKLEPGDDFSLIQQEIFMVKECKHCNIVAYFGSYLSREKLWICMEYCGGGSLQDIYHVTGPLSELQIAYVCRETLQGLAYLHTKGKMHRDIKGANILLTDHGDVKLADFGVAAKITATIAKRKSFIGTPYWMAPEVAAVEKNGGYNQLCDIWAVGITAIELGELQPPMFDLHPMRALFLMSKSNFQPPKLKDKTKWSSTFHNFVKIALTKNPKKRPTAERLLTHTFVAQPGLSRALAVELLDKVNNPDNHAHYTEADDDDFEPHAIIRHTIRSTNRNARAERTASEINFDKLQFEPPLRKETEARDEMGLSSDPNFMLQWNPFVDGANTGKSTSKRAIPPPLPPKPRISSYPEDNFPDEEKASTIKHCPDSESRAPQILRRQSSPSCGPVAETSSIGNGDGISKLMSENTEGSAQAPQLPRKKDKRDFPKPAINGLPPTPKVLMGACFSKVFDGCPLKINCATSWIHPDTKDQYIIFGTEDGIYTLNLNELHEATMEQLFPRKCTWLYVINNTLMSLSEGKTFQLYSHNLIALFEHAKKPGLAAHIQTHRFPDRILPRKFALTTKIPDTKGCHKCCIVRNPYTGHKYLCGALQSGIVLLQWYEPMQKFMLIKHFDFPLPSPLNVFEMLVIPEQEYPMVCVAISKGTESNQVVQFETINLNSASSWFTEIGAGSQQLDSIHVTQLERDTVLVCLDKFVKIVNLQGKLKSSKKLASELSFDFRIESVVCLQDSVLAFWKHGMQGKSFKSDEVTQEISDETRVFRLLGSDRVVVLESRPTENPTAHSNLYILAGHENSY
Sequence of Mitogen-activated protein kinase 14 (Q16539 whole entry): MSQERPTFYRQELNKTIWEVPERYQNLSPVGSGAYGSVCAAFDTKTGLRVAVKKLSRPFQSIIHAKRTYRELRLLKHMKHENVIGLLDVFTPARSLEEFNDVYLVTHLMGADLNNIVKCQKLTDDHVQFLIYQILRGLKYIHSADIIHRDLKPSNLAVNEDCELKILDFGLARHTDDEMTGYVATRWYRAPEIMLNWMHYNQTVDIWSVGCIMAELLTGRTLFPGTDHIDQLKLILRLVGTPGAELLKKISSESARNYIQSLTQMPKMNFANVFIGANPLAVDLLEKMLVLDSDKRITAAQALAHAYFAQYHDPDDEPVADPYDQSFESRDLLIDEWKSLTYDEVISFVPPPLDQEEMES

Turning to `Cc1nc(NC(=O)N2CCC[C@H]2C(N)=O)sc1-c1ccnc(C(C)(C)C(F)(F)F)c1` [ALPELISIB], the Kd (in assay [1]; on Ephrin type-A receptor 1; in assay [2]; in assay [3]; in assay [4]; in assay [5]) was > 30 µM (inactive) each time. The Kd in assay [6] is > 30 µM (inactive).

`C=CC(=O)Nc1cc2c(Nc3ccc(F)c(Cl)c3)ncnc2cc1C#CC(C)(C)N1CCN(C)CC1` [AV-412 FREE BASE]: the Kd is > 30 µM (inactive) in assay [1]; > 30 µM (inactive) on Ephrin type-A receptor 1; > 30 µM (inactive) in assay [2]; > 30 µM (inactive) in assay [3]; > 30 µM (inactive) in assay [4]; 0.422 µM (active) in assay [5]. Besides, the Kd in assay [6] was > 30 µM (inactive).

On to `COc1cc([C@@H]2c3cc4c(cc3[C@H](O)[C@H]3COC(=O)[C@@H]23)OCO4)cc(OC)c1OC` [AXL-1717], for which the Kd (in assay [1]; at Ephrin type-A receptor 1; in assay [2]; in assay [3]; in assay [4]; in assay [5]) was > 30 µM (inactive) throughout. The Kd in assay [6] was > 30 µM (inactive).

Turning to `Cn1cnc2c(F)c(Nc3ccc(Br)cc3F)c(C(=O)NOCCO)cc21` [BINIMETINIB], the Kd (in assay [1]; on Ephrin type-A receptor 1; in assay [2]; in assay [3]; in assay [4]; in assay [5]) was > 30 µM (inactive) throughout. In addition, the Kd in assay [6] is > 30 µM (inactive).

As for `CCn1c(C(=O)N(C2CC2)C2CC2)cc2c3c(ncn3C)c(Nc3cc(C)n(C)n3)nc21` [BMS-911543], the Kd (in assay [1]; at Ephrin type-A receptor 1; in assay [2]; in assay [3]; in assay [4]; in assay [5]) was > 30 µM (inactive) throughout. For the same compound, the Kd in assay [6] was > 30 µM (inactive).

In the case of `COc1cc2ncnc(Oc3cccc(NC(=O)Nc4cc(C(C)(C)C(F)(F)F)on4)c3)c2cc1OC` [CEP-32496], the Kd in assay [1] is > 30 µM (inactive); at Ephrin type-A receptor 1, > 30 µM (inactive); in assay [2], 20.1 µM (active); in assay [3], 0.566 µM (active); in assay [4] it was > 30 µM (inactive); in assay [5] it was > 30 µM (inactive). Further, the Kd in assay [6] was > 30 µM (inactive).

As for `Cc1cc(Nc2ncc(Cl)c(Nc3ccccc3S(=O)(=O)C(C)C)n2)c(OC(C)C)cc1C1CCNCC1` [CERITINIB], the Kd (in assay [1]; at Ephrin type-A receptor 1; in assay [2]; in assay [3]; in assay [4]; in assay [5]) was > 30 µM (inactive) each time. The Kd in assay [6] is > 30 µM (inactive).

Regarding `COCC(=O)NC/C=C/c1ccc2ncnc(Nc3ccc(Oc4ccc(C)nc4)c(C)c3)c2c1` [CP-724714], the Kd (in assay [1]; on Ephrin type-A receptor 1; in assay [2]; in assay [3]; in assay [4]; in assay [5]) was > 30 µM (inactive) each time. In addition, the Kd in assay [6] is > 30 µM (inactive).

As to `C#Cc1cccc(Nc2ncnc3cc(OC)c(OCCCCCCC(=O)NO)cc23)c1` [CUDC-101], the Kd (in assay [1]; at Ephrin type-A receptor 1; in assay [2]; in assay [3]; in assay [4]; in assay [5]) was > 30 µM (inactive) each time. Besides, the Kd in assay [6] was > 30 µM (inactive).

On to `Cc1nc2cc(-n3ncc(C(=O)c4cc5ccccc5[nH]4)c3N)ccc2[nH]1` [FGFR INHIBITOR DEBIO 1347], for which the Kd (in assay [1]; at Ephrin type-A receptor 1; in assay [2]; in assay [3]; in assay [4]; in assay [5]) was > 30 µM (inactive) each time. For the same compound, in assay [6], the Kd was > 30 µM (inactive).

Turning to `O=C(Nc1nc2cccc(-c3ccc(CN4CCS(=O)(=O)CC4)cc3)n2n1)C1CC1` [FILGOTINIB], the Kd (in assay [1]; at Ephrin type-A receptor 1; in assay [2]; in assay [3]; in assay [4]; in assay [5]) was > 30 µM (inactive) each time. In addition, in assay [6], the Kd is > 30 µM (inactive).

`CCn1cc(-c2ccnc3[nH]c(-c4cccc(CN(C)C)c4)cc23)c(-c2ccc(NC(=O)N(C)C)cc2)n1` [GSK-1070916]: the Kd was > 30 µM (inactive) in assay [1]; > 30 µM (inactive) on Ephrin type-A receptor 1; > 30 µM (inactive) in assay [2]; 8.5 µM (active) in assay [3]; > 30 µM (inactive) in assay [4]; > 30 µM (inactive) in assay [5]. Moreover, the Kd in assay [6] was > 30 µM (inactive).

In the case of `COc1ccc(S(=O)(=O)N(C(C)=O)c2ccccc2/C=C/c2cc[n+]([O-])cc2)cc1` [HMN-214], the Kd (in assay [1]; at Ephrin type-A receptor 1; in assay [2]; in assay [3]; in assay [4]; in assay [5]) was > 30 µM (inactive) in each case. In addition, in assay [6], the Kd is > 30 µM (inactive).

As usually defined, the Kd is the equilibrium constant for the complex coming apart.
